Reference: ChEMBL document CHEMBL1201862, “PubChem BioAssay data set” (2004)
The source made the active and inactive calls.

Legend:
[1] = target: T1, Sentrin-specific protease 6 (Homo sapiens, UniProt Q9GZR1); experiment: inhibition of human SENP6 catalytic domain – biochemical, luminescence, set 2, SAR follow-up (AID 588598); assay type: functional
T1 sequence (Q9GZR1 whole entry): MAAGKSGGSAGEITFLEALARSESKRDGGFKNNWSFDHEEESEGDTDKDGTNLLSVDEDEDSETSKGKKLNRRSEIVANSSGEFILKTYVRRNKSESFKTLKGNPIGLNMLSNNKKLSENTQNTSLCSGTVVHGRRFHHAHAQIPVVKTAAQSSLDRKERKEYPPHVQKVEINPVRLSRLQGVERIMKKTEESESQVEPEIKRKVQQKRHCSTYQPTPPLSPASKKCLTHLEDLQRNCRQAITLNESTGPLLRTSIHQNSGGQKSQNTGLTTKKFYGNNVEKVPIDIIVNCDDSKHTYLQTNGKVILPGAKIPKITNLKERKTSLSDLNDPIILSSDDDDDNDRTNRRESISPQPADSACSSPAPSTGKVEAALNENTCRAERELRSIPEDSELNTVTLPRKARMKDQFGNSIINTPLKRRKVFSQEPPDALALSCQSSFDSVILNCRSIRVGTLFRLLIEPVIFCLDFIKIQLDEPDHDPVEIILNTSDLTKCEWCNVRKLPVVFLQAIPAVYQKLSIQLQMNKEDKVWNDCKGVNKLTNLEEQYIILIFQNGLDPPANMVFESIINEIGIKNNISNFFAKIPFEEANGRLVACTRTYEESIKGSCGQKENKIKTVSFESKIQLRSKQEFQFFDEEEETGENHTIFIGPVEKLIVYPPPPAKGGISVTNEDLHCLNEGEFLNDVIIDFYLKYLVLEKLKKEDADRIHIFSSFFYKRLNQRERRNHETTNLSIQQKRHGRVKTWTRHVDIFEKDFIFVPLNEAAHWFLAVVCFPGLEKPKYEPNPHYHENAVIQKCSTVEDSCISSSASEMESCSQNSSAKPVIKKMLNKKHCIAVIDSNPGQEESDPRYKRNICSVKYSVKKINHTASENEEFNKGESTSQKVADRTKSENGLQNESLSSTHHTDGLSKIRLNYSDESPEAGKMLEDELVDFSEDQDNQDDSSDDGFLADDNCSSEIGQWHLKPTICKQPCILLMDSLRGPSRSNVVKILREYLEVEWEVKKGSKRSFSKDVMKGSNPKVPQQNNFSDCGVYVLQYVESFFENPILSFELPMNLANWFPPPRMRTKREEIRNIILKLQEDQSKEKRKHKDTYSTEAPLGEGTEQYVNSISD

[2] = target: T2, Sentrin-specific protease 7 (Homo sapiens, UniProt Q9BQF6); experiment: inhibition of human SENP7 cleavage activity – biochemical, luminescence, set 2, SAR follow-up (AID 588600); assay type: functional
T2 sequence (Q9BQF6 whole entry): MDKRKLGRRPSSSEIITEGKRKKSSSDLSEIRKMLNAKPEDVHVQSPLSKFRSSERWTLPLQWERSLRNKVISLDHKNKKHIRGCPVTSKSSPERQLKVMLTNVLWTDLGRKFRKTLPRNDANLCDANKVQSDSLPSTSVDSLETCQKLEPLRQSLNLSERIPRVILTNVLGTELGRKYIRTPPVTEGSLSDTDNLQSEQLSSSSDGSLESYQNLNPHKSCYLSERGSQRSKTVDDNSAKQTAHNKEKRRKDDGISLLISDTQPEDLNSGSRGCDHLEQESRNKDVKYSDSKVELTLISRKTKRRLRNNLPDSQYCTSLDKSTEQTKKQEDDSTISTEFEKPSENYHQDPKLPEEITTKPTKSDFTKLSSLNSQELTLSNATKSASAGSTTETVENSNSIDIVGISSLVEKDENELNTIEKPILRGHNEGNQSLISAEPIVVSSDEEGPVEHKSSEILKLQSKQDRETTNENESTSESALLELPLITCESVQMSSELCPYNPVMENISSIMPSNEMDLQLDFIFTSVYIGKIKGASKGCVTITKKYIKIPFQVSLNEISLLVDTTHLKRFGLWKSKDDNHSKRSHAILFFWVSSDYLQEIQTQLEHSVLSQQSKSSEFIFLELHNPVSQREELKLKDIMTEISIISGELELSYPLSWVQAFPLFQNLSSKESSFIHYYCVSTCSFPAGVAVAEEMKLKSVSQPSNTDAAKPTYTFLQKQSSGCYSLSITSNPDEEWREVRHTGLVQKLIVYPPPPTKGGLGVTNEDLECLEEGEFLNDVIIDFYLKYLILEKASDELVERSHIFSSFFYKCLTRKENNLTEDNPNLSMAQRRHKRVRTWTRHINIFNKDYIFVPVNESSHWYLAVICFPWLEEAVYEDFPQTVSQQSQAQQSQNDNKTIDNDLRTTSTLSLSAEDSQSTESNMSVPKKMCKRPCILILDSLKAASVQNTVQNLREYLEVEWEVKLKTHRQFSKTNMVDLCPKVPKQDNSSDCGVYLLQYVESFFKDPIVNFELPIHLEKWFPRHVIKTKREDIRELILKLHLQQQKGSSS

[3] = target: T3, Sentrin-specific protease 8 (Homo sapiens, UniProt Q96LD8); experiment: inhibition of sentrin protease 8 – biochemical, luminescence, set 2, SAR follow-up (AID 588601); assay type: functional
T3 sequence (Q96LD8 whole entry): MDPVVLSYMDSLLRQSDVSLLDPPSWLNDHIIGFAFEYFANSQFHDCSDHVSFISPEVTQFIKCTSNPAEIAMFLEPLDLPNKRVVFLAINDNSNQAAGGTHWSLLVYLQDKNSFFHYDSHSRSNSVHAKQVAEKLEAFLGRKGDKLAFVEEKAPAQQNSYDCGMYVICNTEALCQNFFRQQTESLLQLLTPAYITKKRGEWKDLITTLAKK

Caspase-3 = target: T4, Caspase-3 (Homo sapiens, UniProt P42574); experiment: inhibition of recombinant caspase-3 activity – biochemical, luminescence, set 2, selectivity assay for SENP protease inhibitor project, SAR follow-up (AID 588599); assay type: functional
T4 sequence (P42574 whole entry): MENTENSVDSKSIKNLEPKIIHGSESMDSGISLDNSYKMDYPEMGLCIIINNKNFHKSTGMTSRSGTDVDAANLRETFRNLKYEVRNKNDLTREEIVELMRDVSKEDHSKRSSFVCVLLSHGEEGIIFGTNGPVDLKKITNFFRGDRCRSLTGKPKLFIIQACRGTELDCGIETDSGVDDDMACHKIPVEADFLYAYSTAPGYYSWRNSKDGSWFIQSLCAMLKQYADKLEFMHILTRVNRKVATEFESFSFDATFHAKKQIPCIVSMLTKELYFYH

[4] = target: Type-1 angiotensin II receptor (Homo sapiens, UniProt P30556); experiment: antagonism of angiotensin II type 1 receptor – cell-based, uHTS hits, selectivity assay for APJ receptor antagonist project, dose response (AID 463214); assay type: functional;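 note: antagonist potency against angiotensin II stimulated AT1 response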
Beta-galactosidase = Beta-galactosidase (Escherichia coli, UniProt Q8VNN2); experiment: PubChem AID 485352; assay type: functional
Hexokinase HKDC1 = Hexokinase HKDC1 (Homo sapiens, UniProt Q2TB90); experiment: SAR analysis of small molecule inhibitors of hexokinase domain containing I (HKDC1). [Related pubchem assays (depositor defined):AID493160, AID493190]; assay type: functional
Hexokinase-1 = Hexokinase-1 (Homo sapiens, UniProt P19367); experiment: SAR analysis of small molecule inhibitors of hexokinase domain containing I (HKDC1) in the hexokinase 1 selectivity assay. [Related pubchem assays (depositor defined):AID493160, AID493190]; assay type: functional
Candida albicans [5] = experiment: C. albicans growth inhibition with fluconazole – CaCi-2 strain, Alamar Blue, dry powder, set 4, dose response (AID 488943); assay type: functional, organism-based
Candida albicans [6] = experiment: antifungal activity against resistant Candida strain – CaCi-8, fluconazole, Alamar Blue, dry powder, dose response (AID 488807); assay type: functional, organism-based
Candida albicans [7] = experiment: fluconazole-resistant Candida strain growth inhibitors – CaCi-8 strain, dry powder, set 4, dose response (AID 488950); assay type: functional, organism-based

Chain of Hexokinase-1 (P19367 whole entry, the tested form may be a part): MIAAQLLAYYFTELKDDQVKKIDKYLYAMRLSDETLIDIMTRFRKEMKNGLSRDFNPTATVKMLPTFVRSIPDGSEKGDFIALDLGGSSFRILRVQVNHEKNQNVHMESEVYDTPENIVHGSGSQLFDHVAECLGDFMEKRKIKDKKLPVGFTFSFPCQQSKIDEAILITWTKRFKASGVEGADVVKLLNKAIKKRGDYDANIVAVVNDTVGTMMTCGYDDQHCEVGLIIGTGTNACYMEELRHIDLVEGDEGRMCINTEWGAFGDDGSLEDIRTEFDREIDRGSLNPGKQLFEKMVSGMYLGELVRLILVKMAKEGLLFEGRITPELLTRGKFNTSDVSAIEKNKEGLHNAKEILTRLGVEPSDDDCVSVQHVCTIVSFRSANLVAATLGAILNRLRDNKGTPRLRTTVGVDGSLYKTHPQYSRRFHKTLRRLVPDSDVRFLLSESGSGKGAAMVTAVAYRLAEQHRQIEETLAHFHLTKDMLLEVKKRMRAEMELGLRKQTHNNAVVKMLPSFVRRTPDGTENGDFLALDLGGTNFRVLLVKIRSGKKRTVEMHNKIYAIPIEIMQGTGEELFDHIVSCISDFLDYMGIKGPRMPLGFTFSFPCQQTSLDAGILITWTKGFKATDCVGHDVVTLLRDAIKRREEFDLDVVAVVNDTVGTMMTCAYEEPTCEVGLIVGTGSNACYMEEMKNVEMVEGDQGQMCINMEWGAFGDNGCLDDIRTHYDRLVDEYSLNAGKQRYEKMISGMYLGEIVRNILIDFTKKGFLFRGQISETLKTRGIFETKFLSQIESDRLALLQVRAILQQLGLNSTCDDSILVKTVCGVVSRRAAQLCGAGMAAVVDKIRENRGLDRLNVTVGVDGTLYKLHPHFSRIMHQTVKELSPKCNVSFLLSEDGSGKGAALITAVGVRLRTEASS
Chain of Beta-galactosidase (Q8VNN2 whole entry, the tested form may be a part): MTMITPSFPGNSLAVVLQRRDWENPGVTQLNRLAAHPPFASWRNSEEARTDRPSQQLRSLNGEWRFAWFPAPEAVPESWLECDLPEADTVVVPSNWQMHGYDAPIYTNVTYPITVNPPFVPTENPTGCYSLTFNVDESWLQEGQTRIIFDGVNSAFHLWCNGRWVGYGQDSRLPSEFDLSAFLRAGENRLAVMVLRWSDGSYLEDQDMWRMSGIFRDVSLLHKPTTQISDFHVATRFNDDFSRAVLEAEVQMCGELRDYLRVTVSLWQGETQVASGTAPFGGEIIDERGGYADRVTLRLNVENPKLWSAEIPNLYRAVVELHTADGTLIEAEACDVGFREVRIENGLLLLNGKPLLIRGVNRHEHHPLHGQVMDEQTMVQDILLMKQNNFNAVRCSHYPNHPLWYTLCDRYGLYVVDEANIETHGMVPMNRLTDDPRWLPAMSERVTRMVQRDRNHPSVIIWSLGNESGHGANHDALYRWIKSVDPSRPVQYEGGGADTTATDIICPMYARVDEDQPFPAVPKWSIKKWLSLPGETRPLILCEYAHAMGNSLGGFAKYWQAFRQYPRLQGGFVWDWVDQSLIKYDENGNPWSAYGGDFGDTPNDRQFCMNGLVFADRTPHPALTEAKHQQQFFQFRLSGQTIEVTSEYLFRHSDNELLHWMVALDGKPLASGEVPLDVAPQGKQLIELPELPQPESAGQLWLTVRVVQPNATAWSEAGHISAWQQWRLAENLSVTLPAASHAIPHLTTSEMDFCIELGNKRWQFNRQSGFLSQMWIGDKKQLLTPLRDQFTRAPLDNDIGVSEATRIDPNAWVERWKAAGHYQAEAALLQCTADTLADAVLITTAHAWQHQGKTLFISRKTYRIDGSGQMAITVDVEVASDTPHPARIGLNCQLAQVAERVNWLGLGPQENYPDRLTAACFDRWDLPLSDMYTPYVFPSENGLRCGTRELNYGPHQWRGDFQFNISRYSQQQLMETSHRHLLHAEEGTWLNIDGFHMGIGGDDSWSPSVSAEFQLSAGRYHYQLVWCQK
Chain of Hexokinase HKDC1 (Q2TB90 whole entry, the tested form may be a part): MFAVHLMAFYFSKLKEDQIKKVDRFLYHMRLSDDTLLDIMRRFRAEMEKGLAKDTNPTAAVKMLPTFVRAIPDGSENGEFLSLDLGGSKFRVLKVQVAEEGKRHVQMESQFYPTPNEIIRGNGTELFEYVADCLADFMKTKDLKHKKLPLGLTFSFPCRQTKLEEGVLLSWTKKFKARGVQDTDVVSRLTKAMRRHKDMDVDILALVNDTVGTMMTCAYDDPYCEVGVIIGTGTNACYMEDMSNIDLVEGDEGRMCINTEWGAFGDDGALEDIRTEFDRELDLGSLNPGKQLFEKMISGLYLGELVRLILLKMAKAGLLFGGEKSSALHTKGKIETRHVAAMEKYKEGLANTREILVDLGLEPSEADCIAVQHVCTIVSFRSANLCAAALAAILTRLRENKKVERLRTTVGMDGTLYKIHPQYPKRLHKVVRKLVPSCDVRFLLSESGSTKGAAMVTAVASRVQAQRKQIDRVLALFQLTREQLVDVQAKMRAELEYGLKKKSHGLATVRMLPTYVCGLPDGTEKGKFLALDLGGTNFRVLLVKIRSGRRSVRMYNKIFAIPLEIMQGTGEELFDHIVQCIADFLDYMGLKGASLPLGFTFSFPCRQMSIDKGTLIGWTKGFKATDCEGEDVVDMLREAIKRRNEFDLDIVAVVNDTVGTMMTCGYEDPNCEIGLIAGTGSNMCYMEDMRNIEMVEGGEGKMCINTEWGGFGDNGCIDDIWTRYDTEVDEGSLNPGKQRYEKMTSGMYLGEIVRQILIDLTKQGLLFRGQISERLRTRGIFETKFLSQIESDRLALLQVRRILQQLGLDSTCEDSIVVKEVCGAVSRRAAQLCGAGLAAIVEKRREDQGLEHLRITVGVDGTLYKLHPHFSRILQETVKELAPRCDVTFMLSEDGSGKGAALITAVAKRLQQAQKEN
Chain of Type-1 angiotensin II receptor (P30556 whole entry): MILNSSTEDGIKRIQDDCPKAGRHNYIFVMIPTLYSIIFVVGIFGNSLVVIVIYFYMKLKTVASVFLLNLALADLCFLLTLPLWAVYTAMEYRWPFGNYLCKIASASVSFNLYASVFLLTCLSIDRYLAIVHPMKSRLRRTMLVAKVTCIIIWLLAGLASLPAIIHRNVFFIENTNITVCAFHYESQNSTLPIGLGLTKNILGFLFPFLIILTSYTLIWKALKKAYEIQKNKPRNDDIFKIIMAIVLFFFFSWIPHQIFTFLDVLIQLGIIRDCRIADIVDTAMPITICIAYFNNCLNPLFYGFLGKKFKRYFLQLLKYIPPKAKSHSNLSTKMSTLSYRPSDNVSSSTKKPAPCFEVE

**Q.** `Cc1[nH]c2ccccc2c1C(=O)C(=O)N1CCC2(CC1)OCCO2` was tested. Which IC50 [1] did it give?
**A.** > 99 µM (inactive)

**Q.** What about the IC50 [2] of the same compound?
**A.** > 99 µM (inactive)

**Q.** And the IC50 [3]?
**A.** > 99 µM (inactive)

**Q.** What about the IC50 (Caspase-3) of the same compound?
**A.** > 99 µM (inactive)

**Q.** How did the IC50 [4] turn out when `CN(C)c1ccc(/C=C2\N=C(c3ccc(Cl)c([N+](=O)[O-])c3)NC2=O)cc1` was run?
**A.** > 40 µM (not active)

**Q.** And the EC50 (Beta-galactosidase)?
**A.** > 40 µM (inactive)

**Q.** What does the source list for `N#Cc1ccc(CSc2nnc(NC(=O)c3ccncc3)s2)cc1`?
**A.** IC50 (Hexokinase HKDC1): > 80 µM (inactive); IC50 (Hexokinase-1): > 80 µM (inactive)

**Q.** What does the source list for `O=C(c1ccc(Cl)cc1)N1CCN(c2ccc(Cl)cc2)CC1`?
**A.** AC50 (Candida albicans [5]): 4.76 µM (active); AC50 (Candida albicans [6]): 375 nM (active); AC50 (Candida albicans [7]): 5.25 µM (active)
